Reference: patent US12435044B2, “Pyridazinone herbicides and pyridazinone intermediates used to prepare a herbicide” (FMC Corporation, priority 2018, dated 2025)

Assays:
Format in all cases: in vivo
[1] = system: barnyardgrass (Echinochloa crus-galli); assay: Test C pre-/postemergence greenhouse test; details: scale 0 to 100
Text: (§1) Seeds of plant species selected from blackgrass (Alopecurus myosuroides), ryegrass, Italian (Lolium multiflorum), wheat, winter (winter wheat, Triticum aestivum), galium (catchweed bedstraw, Galium aparine), corn (Zea mays), crabgrass, large (Digitaria sanguinalis), foxtail, giant (Setaria faberii), johnsongrass (Sorghum halepense), lambsquarters (Chenopodium album), morningglory (Ipomoea coccinea), nutsedge, yellow (Cyperus esculentus), pigweed (Amaranthus retroflexus), ragweed (common ragweed, Ambrosia elatior), soybean (Glycine max), barnyardgrass (Echinochloa crus-galli), oilseed rape (Brassica napus), waterhemp (common waterhemp, Amaranthus rudis), pigweed, palmer (Amaranthus palmeri), kochia (Kochia scoparia), oat, wild (Avena fatua), surinam grass (Brachiaria decumbens), windgrass (Apera spica-venti), poinsettia, wild (Euphorbia heterophylla) and velvetleaf (Abutilon theophrasti) were planted into a silt loam soil and treated preemergence with test chemicals formulated in a non-phytotoxic solvent mixture which included a surfactant.
(§2) At the same time, plants selected from these crop and weed species and also chickweed (common chickweed, Stellaria media), buckwheat, wild (Polygonum convolvulus), mustard, wild (Sinapis arvensis), field poppy (Papaver rhoeas), field violet (Viola arvensis), nightshade (eastern black nightshade, Solanum ptycanthum), speedwell (bird's-eye speedwell, Veronica persica), horseweed (Conyza canadensis), cutleaf geranium (Geranium dissectum), and Canada thistle (Cirsium arvense) were planted in pots containing Redi-Earth® planting medium (Scotts Company, 14111 Scottslawn Road, Marysville, Ohio 43041) comprising spaghnum peat moss, vermiculite, wetting agent and starter nutrients and treated with postemergence applications of test chemicals formulated in the same manner. Plants ranged in height from 2 to 18 cm (1- to 4-leaf stage) for postemergence treatments. Treated plants and controls were maintained in a greenhouse for 13 to 21 d, after which time all species were compared to controls and visually evaluated. Plant response ratings, summarized in Table C-1 (postemergence) and C-2 (preemergence), are based on a scale of 0 to 100 where 0 is no effect and 100 is complete control. A dash (-) response means no test result.

[2] = system: corn (Zea mays); assay: Test C pre-/postemergence greenhouse test; details: scale 0 to 100
Text: as §1, §2

[3] = system: galium (catchweed bedstraw, Galium aparine); assay: Test C pre-/postemergence greenhouse test; details: scale 0 to 100
Text: as §1, §2

[4] = system: johnsongrass (Sorghum halepense); assay: Test C pre-/postemergence greenhouse test; details: Preemergence, scale 0 to 100
Text: as §1, §2

[5] = system: kochia (Kochia scoparia); assay: Test C pre-/postemergence greenhouse test; details: scale 0 to 100
Text: as §1, §2

[6] = system: nutsedge, yellow (Cyperus esculentus); assay: Test C pre-/postemergence greenhouse test; details: Preemergence, scale 0 to 100
Text: as §1, §2

[7] = system: pigweed, palmer (Amaranthus palmeri); assay: Test C pre-/postemergence greenhouse test; details: scale 0 to 100
Text: as §1, §2

[8] = system: surinam grass (Brachiaria decumbens); assay: Test C pre-/postemergence greenhouse test; details: Preemergence, scale 0 to 100
Text: as §1, §2

[9] = system: waterhemp (common waterhemp, Amaranthus rudis); assay: Test C pre-/postemergence greenhouse test; details: scale 0 to 100
Text: as §1, §2

[10] = system: barnyardgrass (Echinochloa crus-galli); assay: Test C flooded paddy test; details: Flood, scale 0 to 100
[11] = system: ducksalad (Heteranthera limosa); assay: Test C flooded paddy test; details: Flood, scale 0 to 100
[12] = system: rice (transplanted and water seeded, Oryza sativa); assay: Test C flooded paddy test; details: Flood, scale 0 to 100

## Cc1ccc2ccc(F)cc2c1-c1c(O)c(Cl)nn(C)c1=O [Cpd. No. 21]
[1]; Postemergence, 16 g ai/ha
  Plant response rating, Barnyardgrass: 60
[1]; Postemergence, 31 g ai/ha
  Plant response rating, Barnyardgrass: 85
[1]; Postemergence, 62 g ai/ha
  Plant response rating, Barnyardgrass: 90
[1]; Postemergence, 125 g ai/ha
  Plant response rating, Barnyardgrass: 90
[1]; Preemergence, 31 g ai/ha
  Plant response rating, Barnyardgrass: 75
[1]; Preemergence, 61 g ai/ha
  Plant response rating, Barnyardgrass: 25
[1]; Preemergence, 62 g ai/ha
  Plant response rating, Barnyardgrass: 85
[1]; Preemergence, 125 g ai/ha
  Plant response rating, Barnyardgrass: 95
[2]; Postemergence, 16 g ai/ha
  Plant response rating, Corn: 0
[2]; Postemergence, 31 g ai/ha
  Plant response rating, Corn: 0
[2]; Postemergence, 62 g ai/ha
  Plant response rating, Corn: 15
[2]; Postemergence, 125 g ai/ha
  Plant response rating, Corn: 18
[2]; Preemergence, 31 g ai/ha
  Plant response rating, Corn: 0
[2]; Preemergence, 61 g ai/ha
  Plant response rating, Corn: 0
[2]; Preemergence, 62 g ai/ha
  Plant response rating, Corn: 5
[2]; Preemergence, 125 g ai/ha
  Plant response rating, Corn: 20
[3]; Postemergence, 16 g ai/ha
  Plant response rating, Galium: 90
[3]; Postemergence, 31 g ai/ha
  Plant response rating, Galium: 95
[3]; Postemergence, 62 g ai/ha
  Plant response rating, Galium: 98
[3]; Postemergence, 125 g ai/ha
  Plant response rating, Galium: 78
[3]; Preemergence, 31 g ai/ha
  Plant response rating, Galium: 95
[3]; Preemergence, 61 g ai/ha
  Plant response rating, Galium: 90
[3]; Preemergence, 62 g ai/ha
  Plant response rating, Galium: 95
[3]; Preemergence, 125 g ai/ha
  Plant response rating, Galium: 95
[4]; 31 g ai/ha
  Plant response rating, Johnsongrass: 10
[4]; 61 g ai/ha
  Plant response rating, Johnsongrass: 5
[4]; 62 g ai/ha
  Plant response rating, Johnsongrass: 50
[4]; 125 g ai/ha
  Plant response rating, Johnsongrass: 65
[5]; Postemergence, 16 g ai/ha
  Plant response rating, Kochia: 13
[5]; Postemergence, 31 g ai/ha
  Plant response rating, Kochia: 18
[5]; Postemergence, 62 g ai/ha
  Plant response rating, Kochia: 28
[5]; Postemergence, 125 g ai/ha
  Plant response rating, Kochia: 28
[5]; Preemergence, 31 g ai/ha
  Plant response rating, Kochia: 20
[5]; Preemergence, 61 g ai/ha
  Plant response rating, Kochia: 5
[5]; Preemergence, 62 g ai/ha
  Plant response rating, Kochia: 70
[5]; Preemergence, 125 g ai/ha
  Plant response rating, Kochia: 90
[6]; 31 g ai/ha
  Plant response rating, Nutsedge, Yellow: 60
[6]; 61 g ai/ha
  Plant response rating, Nutsedge, Yellow: 30
[6]; 62 g ai/ha
  Plant response rating, Nutsedge, Yellow: 85
[6]; 125 g ai/ha
  Plant response rating, Nutsedge, Yellow: 95
[7]; Postemergence, 16 g ai/ha
  Plant response rating, Pigweed, Palmer: 30
[7]; Postemergence, 31 g ai/ha
  Plant response rating, Pigweed, Palmer: 30
[7]; Postemergence, 62 g ai/ha
  Plant response rating, Pigweed, Palmer: 30
[7]; Postemergence, 125 g ai/ha
  Plant response rating, Pigweed, Palmer: 95
[7]; Preemergence, 31 g ai/ha
  Plant response rating, Pigweed, Palmer: 55
[7]; Preemergence, 61 g ai/ha
  Plant response rating, Pigweed, Palmer: 20
[7]; Preemergence, 62 g ai/ha
  Plant response rating, Pigweed, Palmer: 70
[7]; Preemergence, 125 g ai/ha
  Plant response rating, Pigweed, Palmer: 90
[8]; 31 g ai/ha
  Plant response rating, Surinam Grass: 100
[8]; 61 g ai/ha
  Plant response rating, Surinam Grass: 80
[8]; 62 g ai/ha
  Plant response rating, Surinam Grass: 100
[8]; 125 g ai/ha
  Plant response rating, Surinam Grass: 100
[9]; Postemergence, 16 g ai/ha
  Plant response rating, Waterhemp: 80
[9]; Postemergence, 31 g ai/ha
  Plant response rating, Waterhemp: 85
[9]; Postemergence, 62 g ai/ha
  Plant response rating, Waterhemp: 98
[9]; Postemergence, 125 g ai/ha
  Plant response rating, Waterhemp: 90
[9]; Preemergence, 31 g ai/ha
  Plant response rating, Waterhemp: 85
[9]; Preemergence, 61 g ai/ha
  Plant response rating, Waterhemp: 80
[9]; Preemergence, 62 g ai/ha
  Plant response rating, Waterhemp: 95
[9]; Preemergence, 125 g ai/ha
  Plant response rating, Waterhemp: 98
[10]; 31 g ai/ha
  Plant response rating, Barnyardgrass: 0
[10]; 62 g ai/ha
  Plant response rating, Barnyardgrass: 0
[10]; 125 g ai/ha
  Plant response rating, Barnyardgrass: 30
[10]; 250 g ai/ha
  Plant response rating, Barnyardgrass: 65
[11]; 31 g ai/ha
  Plant response rating, Ducksalad: 0
[11]; 62 g ai/ha
  Plant response rating, Ducksalad: 30
[11]; 125 g ai/ha
  Plant response rating, Ducksalad: 80
[11]; 250 g ai/ha
  Plant response rating, Ducksalad: 85
[12]; 31 g ai/ha
  Plant response rating, Rice, Transplanted: 0
[12]; 62 g ai/ha
  Plant response rating, Rice, Transplanted: 0
[12]; 125 g ai/ha
  Plant response rating, Rice, Transplanted: 0
[12]; 250 g ai/ha
  Plant response rating, Rice, Transplanted: 15
